# “Also recorded” adds a separate entry of the source.
# What was measured:
# [1] = test system: four day serum starved fibroblasts; test: induction of apoptosis in quiescent fibroblasts by DHEA and/or autophagy inhibitor combined with proteasome inhibitors; type: cell-based, human; details: DHEA alone; 48 hour treatment
# Experimental: Referring to FIG. 17, the effect of treatment using DHEA and/or an autophagy inhibitor combined with proteasome inhibitors on apoptosis in quiescent cells was analyzed.
# In this experiment, the proteasome inhibitor, bortezomib, was used in varying concentrations with DHEA during a 48 hour treatment.
# thyroid tumors = details: F344 rats treated with DHPN, then DHEA; cited from earlier work
# [2] = test system: primary human fibroblasts; test: caspase 3/7 activity apoptosis assay (ApoTox-Glo) in proliferating and quiescent fibroblasts; type: cell-based; details: for apoptosis-inducing effect (caspase-3/7 activity normalized to vehicle): four days treatment
# Experimental: Referring to FIG. 2A, primary human fibroblasts were tested either in a proliferating state or after being induced into quiescence. Quiescence may be induced by either contact inhibition or serum starvation. Cells were treated with DHEA for four days, with bafilomycin added on the fourth day. Apoptosis was assessed based on the activity of caspase 3/7 for a fluorogenic substrate.
# PPP inhibition and apoptosis analysis: Apoptosis was measured based on the levels of caspase 3/7 released into the media using the ApoTox-Glo Triplex Assay according to the manufacturer's instructions (Promega Corp., Madison, Wis.). Cells were plated in triplicate at 10,000 cells per well in white-walled, clear-bottom 96-well plates (Costar, Corning Life Sciences, Lowell, Mass.). For contact inhibition, cells were plated 7 days prior to the start of treatment, for serum starvation cells were plated 4 days prior to treatment and switched to 0.1% serum media for the remaining 3 days, while proliferating cells were plated the day prior to the start of treatment. […] Cells in serum starvation conditions were incubated in 0.1% serum during treatment as well. The apoptosis reagent was added at 100 μl per well and incubated for 1 h prior to reading. Luminescence was read from the top using a Synergy-2 plate reader (Biotek, Winooski, Vt.). Luminescence data were normalized to the vehicle only condition.
# Apoptosis induction was assessed by monitoring caspase 3/7 activity using a luminescent caspase substrate. This assay is optimized for high-throughput screening in 96-well plates and allows multiple concentrations and combination of drugs to be tested in triplicate at different time points. […] Therefore, this assay was used to compare proliferating and serum-starved cells only.
# [3] = test system: spontaneous breast cancer; details: long-term treatment; female C3H (Avy/a) mice; cited from earlier work
# G6PD = target: T1, G6PD (Homo sapiens, UniProt P11413); test: G6PD activity in fibroblasts treated with DHEA; type: cell-based
# T1 construct: endogenous in cells; host or cells: primary human foreskin fibroblasts (proliferating or serum-starved)
# From the text: Referring to FIGS. 18A and 18B, NADPH production is induced in quiescent fibroblasts. G6PD, PGD and IDH1 are expressed at low levels in proliferating fibroblasts, at higher levels in 7 dCI, 14 dCI and 14 dCI7 dSS fibroblasts, and at even higher levels in 4 dSS and 7 dSS fibroblasts (FIGS. 18A and 18B). Malic enzyme, another protein that generates NADPH but was not predicted to be differentially active in proliferating versus quiescent fibroblasts, was expressed at similar levels in cells in all conditions. The activity of the NADPH-producing enzymes in cytosolic or mitochondrial lysates collected from cells in different proliferative conditions is shown in FIG. 18A. Immunoblotting confirmed successful separation of mitochondrial and cytosolic proteins. Lysates were incubated with the appropriate substrate and the rate of enzymatic activity was determined based on the appearance or disappearance of NADH or NADPH. G6PD had the highest specific activity among the enzymes monitored, consistent with previous reports that it is the most important contributor to NAPDH levels. […] Thus NADPH-generating enzymes in the pentose-phosphate pathway are activated in serum-starved fibroblasts. […]
# tumor cells = details: intraperitoneal injection of tumor cells; cited from earlier work
# [4] = test system: extracellular glutathione; test: glutathione in conditioned medium by mass spectrometry; type: cell-based, human; details: 7 dSS fibroblasts; DHEA vs DMSO control
# From the text: It was expected that the reduction in NADPH levels that resulted from DHEA treatment would result in lower activity of glutathione reductase and thus a decrease in the levels of reduced glutathione. […] The depletion of glutathione in response to DHEA could be an important part of the apoptotic pathway. Alternatively, because apoptosing cells can rapidly and selectively release glutathione to the extracellular environment (van den Dobbelsteen et al., 1996, “Rapid and specific efflux of reduced glutathione during apoptosis induced by anti-Fas/APO-1 antibody,” J Biol Chem 271, 15240-15427; Franco et al., “Glutathione depletion is necessary for apoptosis in lymphoid cells independent of reactive oxygen species,” J Biol Chem 282, 30452-30465, 2007, which are incorporated herein by reference as if fully set forth), the depletion of glutathione could represent a response to a distinct apoptotic trigger. Mass spectrometry was used to measure glutathione levels in conditioned medium from 7 dSS fibroblasts treated with DMSO as a control or with DHEA. There was no increase in extracellular glutathione in conditioned medium from DHEA-treated fibroblasts compared with controls; in fact, levels were lower, consistent with a DHEA-induced reduction in intracellular levels of reduced glutathione. […]
# T1 sequence (P11413 whole entry): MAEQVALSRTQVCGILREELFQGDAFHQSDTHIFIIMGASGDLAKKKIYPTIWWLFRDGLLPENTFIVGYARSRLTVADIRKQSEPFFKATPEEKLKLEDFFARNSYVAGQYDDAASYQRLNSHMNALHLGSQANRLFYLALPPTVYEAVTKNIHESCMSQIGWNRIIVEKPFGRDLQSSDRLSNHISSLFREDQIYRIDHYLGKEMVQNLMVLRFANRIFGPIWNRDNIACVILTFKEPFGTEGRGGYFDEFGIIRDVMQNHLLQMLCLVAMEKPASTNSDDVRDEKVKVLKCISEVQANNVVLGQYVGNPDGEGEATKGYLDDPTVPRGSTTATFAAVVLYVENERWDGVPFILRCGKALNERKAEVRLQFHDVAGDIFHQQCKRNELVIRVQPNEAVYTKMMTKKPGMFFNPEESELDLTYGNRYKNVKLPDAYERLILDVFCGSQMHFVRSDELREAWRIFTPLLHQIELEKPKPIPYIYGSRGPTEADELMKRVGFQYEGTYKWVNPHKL
structure (smiles),measurement,setting,value
"C[C@]12CC[C@H](O)CC1=CC[C@@H]1[C@@H]2CC[C@]2(C)C(=O)CC[C@@H]12 [DHEA, dehydroepiandrosterone]",increase in apoptosis induction,[1],~2 fold
same,basophilic hepatocellular foci,thyroid tumors,associated with development of basophilic hepatocellular foci
same,development of thyroid tumors,thyroid tumors,decreased development of thyroid tumors
same,apoptosis-inducing effect (caspase-3/7 activity normalized to vehicle),[2]; fibroblasts confluent 11 days (CI11) vs proliferating,significantly stronger; also recorded: statistically significantly different at all doses except 100 μM
same,apoptosis-inducing effect (caspase-3/7 activity normalized to vehicle),[2]; fibroblasts serum-starved seven days (SS7) vs proliferating,yet stronger; also recorded: particularly sensitive; also recorded: statistically significantly different at all doses
same,caspase induction,[2]; treatment with DHEA alone,6- to 8 fold
same,spontaneous breast cancer occurrence,[3],inhibit spontaneous breast cancer occurrence
same,G6PD activity,G6PD; proliferating cells treated with DHEA,declined
same,G6PD activity,G6PD; serum-starved fibroblasts treated with DHEA,significantly declined
same,tumor growth,tumor cells,inhibit tumor growth
same,extracellular glutathione in conditioned medium,[4],no increase

# From patent US20130064815A1, “INDUCING APOPTOSIS IN QUIESCENT CELLS” (THE TRUSTEES OF PRINCETON UNIVERSITY, priority 2011, published 2013)
